The source of these data is ChEMBL document CHEMBL3244110, “Synthesis and biological evaluation of some 2-amino-4-aryl-3H-1,5-benzodiazepine analogues of clozapine” (J Med Chem, 1978).

Calls of active or inactive are those of the source. The calls are words filed in the database; no cut-off is given here.

Data set [1] has as its system Mus musculus. The data set is described as follows: Antipsychotic activity in mouse assessed as protection against amphetamine-induced lethality at 5 mg/kg, ip treated 30 mins before amphetamine challenge. The data set is classed as functional, organism-based. Details: dose 5 mg/kg.
Data set [2] relates to Mus musculus. The data set is described as follows: Antipsychotic activity in mouse assessed as increase in brain dopamine turnover at 25 to 30 mg/kg, ip pretreated with 200 mg/kg, ip alpha-methyl-p-tyrosine tyrosine hydroxylase inhibitor. Type of data set: functional, organism-based.
Data set [3] relates to Mus musculus. The data set is described as follows: Toxicity in mouse assessed as depression at 50 mg/kg, ip. Type of data set: organism-based. Details: dose 50 mg/kg, route intraperitoneal. The following applies: in vivo.
For data set [4], the system named is Mus musculus. Put plainly: Toxicity in mouse assessed as ptosis at 50 mg/kg, ip. The data set is classed as organism-based. The arrangement: dose 50 mg/kg, route intraperitoneal. The following applies: in vivo.
Data set [5] relates to Mus musculus. The data set is described as follows: Antipsychotic activity in mouse assessed as protection against amphetamine-induced lethality at 50 mg/kg, ip treated 30 mins before amphetamine challenge. The arrangement: dose 50 mg/kg. The data set is classed as functional, organism-based.
Data set [6] has as its system Rattus norvegicus. The data set is described as follows: Antipsychotic activity in 0.2 mA footshock-induced conditioned stimulus rat assessed as decrease in avoidance response at 5 mg/kg, ip after 30 mins. The arrangement: dose 5 mg/kg. Type of data set: functional, organism-based.
The subject of data set [7] is Rattus norvegicus. The data set is described as follows: Antipsychotic activity in 0.2 mA footshock-induced conditioned stimulus rat assessed as decrease in avoidance response at 20 mg/kg, ip after 30 mins. Type of data set: functional, organism-based. Details: dose 20 mg/kg.
Data set [8] addresses Adenylate cyclase (Rattus norvegicus) (UniProt D4A3N4+P26770+Q04400+P26769+Q03343+P40146+Q8CFM9+P21932). The data set is described as follows: Inhibition of dopamine-sensitive rat brain adenylyl cyclase activity assessed as cAMP level at 10^-4 M. A general note: Changes in cAMP serve as a functional read-out for many G protein-coupled receptors.
In data set [9] the target is Adenylate cyclase. Put plainly: Inhibition of dopamine-sensitive rat brain adenylyl cyclase activity assessed as cAMP level.

Regarding `Clc1ccc(C2=Nc3ccccc3N=C(N3CCC(c4ccccc4)CC3)C2)cc1`, the outcome in [1], in data set [2], in data set [5], in [6] and in [7] was inactive. The Activity entry in data set [3] and in data set [4] was “Toxic” in each case.
In the case of `FC(F)(F)c1ccc(C2CCN(C3=Nc4ccccc4N=C(c4ccccc4)C3)CC2)cc1`, in data set [1], the outcome was Active. Further, the result in [2], in data set [5], in data set [6] and in [7] was inactive. Also, in [3], the Activity result is given as “Toxic”. The inhibition entry in data set [8] was “inactive”.
Regarding `COc1ccc(C2=Nc3ccccc3N=C(N3CCN(C)CC3)C2)cc1`, the result in data set [1], in data set [5], in data set [6] and in data set [7] was inactive.
On to `Cc1cc2c(cc1C)N=C(N1CCN(C)CC1)CC(c1ccc(F)cc1)=N2`, for which the result in [1], in data set [5], in [6] and in data set [7] was inactive.
Consider `Cc1ccc(C2=Nc3ccccc3N=C(N3CCC(c4ccccc4)CC3)C2)cc1`, for which the result in data set [1], in data set [2], in [5], in [6] and in [7] was inactive.
As for `c1ccc(CC2CCN(C3=Nc4ccccc4N=C(c4ccccc4)C3)CC2)cc1`, the result in data set [1] and in [5] was Active. In addition, the result in [2], in data set [6] and in [7] was inactive. For the same molecule, the Activity result in data set [4] is recorded as “Toxic”.
As usually defined, the IC50 is the concentration at which inhibition is half-maximal. Consider `O=C(CCCN1CCC(O)(c2ccc(Cl)cc2)CC1)c1ccc(F)cc1` [HALOPERIDOL], for which the outcome in data set [1], in data set [2] and in data set [5] was Active. Besides, the 50% inhibitory concentration (IC50) in data set [9] is 2300 nM.
In the case of `C1=C(c2ccccc2)CCN(C2=Nc3ccccc3N=C(c3ccccc3)C2)C1`, the outcome in data set [1], in data set [2], in data set [5], in [6] and in [7] was inactive. In addition, in data set [8], the inhibition result is “inactive”.
For Butaclamol, the outcome in data set [1] and in data set [5] was Active.
With `CN(C)CCCN1c2ccccc2Sc2ccc(Cl)cc21`, the outcome in data set [1], in data set [2] and in data set [5] was Active.
For `CN1CCN(C2=Nc3cc(Cl)ccc3N=C(c3ccccc3)C2)CC1`, the outcome in data set [1] was Active. The outcome in data set [2], in data set [5], in data set [6] and in [7] was inactive.
For the molecule `FC(F)(F)c1ccc(C2=CCN(C3=Nc4ccccc4N=C(c4ccccc4)C3)CC2)cc1`, the result in [1], in [2], in [5], in [6] and in data set [7] was inactive. The inhibition entry in data set [8] was “inactive”.
For `c1ccc(C2=Nc3ccccc3N=C(N3CCCCC3)C2)cc1`, the result in [1], in data set [2], in data set [5], in data set [6] and in [7] was inactive.
For the molecule `CN1CCN(C2=Nc3ccccc3N=C(c3ccc(Cl)cc3)C2)CC1`, the outcome in data set [1], in data set [2], in [5], in data set [6] and in [7] was inactive.
As for `c1ccc(C2=Nc3ccccc3N=C(N3CCOCC3)C2)cc1`, the result in data set [1], in data set [2], in [5], in data set [6] and in data set [7] was inactive.
`c1ccc(C2=Nc3ccccc3N=C(N3CCN(c4ccccc4)CC3)C2)cc1`: the outcome in data set [1], in data set [2], in [5], in [6] and in [7] was inactive.
Regarding `Cc1cc2c(cc1C)N=C(N1CCC(c3ccccc3)CC1)CC(c1ccccc1)=N2`, the result in data set [1], in data set [2], in [5], in data set [6] and in data set [7] was inactive. Moreover, the inhibition result in data set [8] was “inactive”.
As for `CN(CCO)C1=Nc2ccccc2N=C(c2ccccc2)C1`, the result in data set [1], in [2], in [5], in [6] and in data set [7] was inactive.
For `c1ccc(C2=Nc3ccccc3N=C(N3CCC(N4CCCCC4)CC3)C2)cc1`, the outcome in [1], in data set [5], in data set [6] and in [7] was inactive. For the same molecule, in data set [2], the result was Active. Moreover, the inhibition result in [8] was “inactive”.
For `Clc1ccc2c(c1)N=C(N1CCC(c3ccccc3)CC1)CC(c1ccccc1)=N2`, the result in data set [1], in [2], in [5], in [6] and in data set [7] was inactive. Moreover, in data set [8], the inhibition result was “inactive”. Also, the Activity result in [4] is “Toxic”.
For `CN1CCN(C2=Nc3ccccc3N=C(c3ccccc3)C2)CC1`, the result in [1], in [5], in data set [6] and in [7] was inactive. The result in [2] was Active. Further, the Activity result in data set [3] and in [4] was “Toxic” each time. The inhibition result in [8] is “inactive”.
Regarding `FC(F)(F)c1cccc(C2CCN(C3=Nc4ccccc4N=C(c4ccccc4)C3)CC2)c1`, the outcome in data set [1], in data set [2], in data set [5], in data set [6] and in data set [7] was inactive. Moreover, in data set [8], the inhibition entry is “inactive”. The Activity entry in data set [4] is “Toxic”.
Consider `c1ccc(C2=Nc3ccccc3N=C(N3CCCC3)C2)cc1`, for which the outcome in data set [1], in [2], in data set [5], in [6] and in data set [7] was inactive.
On to `c1ccc(C2=Nc3ccccc3N=C(N3CCC(C(c4ccccc4)c4ccccc4)CC3)C2)cc1`, for which the outcome in data set [1], in data set [2], in data set [6] and in data set [7] was inactive. The Activity result in data set [4] is “Toxic”. In data set [5], the outcome was Active.
`COc1ccc(C2CCN(C3=Nc4ccccc4N=C(c4ccccc4)C3)CC2)cc1`: the result in data set [1], in [2], in [5], in [6] and in [7] was inactive. Besides, the inhibition entry in data set [8] is “inactive”.
For `COc1ccc(C2=Nc3ccccc3N=C(N3CCC(c4ccccc4)CC3)C2)cc1`, the outcome in [1], in [2], in data set [5], in data set [6] and in data set [7] was inactive.
With `CN(C)C1=Nc2ccccc2N=C(c2ccccc2)C1`, the result in data set [1], in data set [2], in data set [5], in data set [6] and in data set [7] was inactive. Besides, the Activity result in data set [4] is “Toxic”.
On to `Cc1ccc(C2=Nc3ccccc3N=C(N3CCN(C)CC3)C2)cc1`, for which the outcome in [1], in [5], in [6] and in data set [7] was inactive.
`CSc1ccc2c(c1)N(CCC1CCCCN1C)c1ccccc1S2` (stereo unspecified): the outcome in data set [2] was Active.
On to `Clc1ccc(C2=CCN(C3=Nc4ccccc4N=C(c4ccccc4)C3)CC2)cc1`, for which the result in data set [1], in data set [5], in data set [6] and in data set [7] was inactive. Further, in data set [2], the result was Active. Moreover, the Activity entry in data set [3] and in data set [4] was “Toxic” throughout. Also, the inhibition entry in [8] was “inactive”.
As for `OCCN1CCN(CCCN2c3ccccc3Sc3ccc(C(F)(F)F)cc32)CC1`, the result in [1] and in [5] was Active.
